In patent US20220073536A1 (Rigel Pharmaceuticals, Inc., priority 2003, published 2022):

Experiments:
[1] = tested on: cultured human mast cells (CHMC); assay: CHMC low cell density IgE activation: tryptase assay; format: cell-based; details: low cell density CHMC, IgE activation, tryptase readout
Procedure, shortened: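 Anti-IgE-driven degranulation of cultured human mast cells at low density, 1000–1500 cells/well, was induced over 30 min at 37 °C. It was scored by supernatant tryptase activity on a fluorogenic substrate.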

[2] = tested on: cultured human mast cells (CHMC); assay: CHMC low cell density ionomycin activation: tryptase assay; format: cell-based; details: low cell density CHMC, tryptase readout, 3 pt, read-out: LD Tryptase, CHMC, Iono, 3 pt
[3] = Homo sapiens, Mast cell, 3 pt, read-out: LD Tryptase, CHMC, IgE, 3 pt
[4] = Homo sapiens, Mast cell, 8 pt, read-out: LD Tryptase, CHMC, IgE, 8 pt
[5] = 3 pt, read-out: LD Tryptase, CHMC, IgE, 3 pt
[6] = 8 pt, read-out: LD Tryptase, CHMC, IgE, 8 pt

SMILES	IC50 [1, 3] [µM]	IC50 [1, 4] [µM]	IC50 ([2]; Homo sapiens, Mast cell) [µM]	IC50 [1, 5] [µM]	IC50 [1, 6] [µM]	IC50 [2] [µM]
CN(c1ccc2c(c1)NC(=O)C(C)(C)O2)c1nc(Nc2cccc(-c3ncco3)c2)ncc1F [Compound 1019, N4-(2,2-Dimethyl-3-oxo-4H-benz[1,4]oxazin-6-yl)-5-fluoro-N4-methyl-N2-[3-(oxazol-2-yl)phenyl]-2,4-pyrimidinediamine]	< 10	< 10	> 10	–	–	–
CC1(C)Oc2ccc(Nc3nc(Nc4ccc(-c5cnco5)cc4)ncc3F)cc2NC1=O [Compound 1020, N4-(2,2-Dimethyl-3-oxo-4H-benz[1,4]oxazin-6-yl)-5-fluoro-N2-[4-(oxazol-5-yl)phenyl]-2,4-pyrimidinediamine]	< 10	< 10	> 10	–	–	–
CN(c1ccc2c(c1)NC(=O)C(C)(C)O2)c1nc(Nc2ccc(-c3ncco3)cc2)ncc1F [Compound 1021]	< 10	< 10	< 10	–	–	–
CNC(=O)COc1cccc(Nc2ncc(F)c(N(C)c3ccc4c(c3)NC(=O)C(C)(C)O4)n2)c1 [Compound 1022, N4-(2,2-Dimethyl-3-oxo-4H-benz[1,4]oxazin-6-yl)-5-fluoro-N4-methyl-N2-[3-(N-methylamino)carbonylmethyleneoxyphenyl]-2,4-pyrimidinediamine]	–	–	–	< 10	< 10	> 10
CN(c1ccc2c(c1)NC(=O)C(C)(C)O2)c1nc(Nc2cccc(-c3cnco3)c2)ncc1F [Compound 1023, N4-(2,2-Dimethyl-3-oxo-4H-benz[1,4]oxazin-6-yl)-5-fluoro-N4-methyl-N2-[3-(oxazol-5-yl)phenyl]-2,4-pyrimidinediamine]	< 10	< 10	> 10	–	–	–
CN1C(=O)C(C)(C)Oc2ccc(N(C)c3nc(Nc4ccc(-c5ncco5)cc4)ncc3F)cc21 [Compound 1024]	< 10	–	< 10	–	–	–
CN1C(=O)C(C)(C)Oc2ccc(N(C)c3nc(Nc4cccc(-c5ncco5)c4)ncc3F)cc21 [Compound 1025, 5-Fluoro-N4-methyl-N2-[3-(oxazol-2-yl)phenyl]-N4-(3-oxo-2,2,4-trimethylbenz[1,4]oxazin-6-yl)-2,4-pyrimidinediamine]	< 10	–	< 10	–	–	–
CN1C(=O)C(C)(C)Oc2ccc(N(C)c3nc(Nc4ccc(-c5cnco5)cc4)ncc3F)cc21 [Compound 1026]	< 10	–	> 10	–	–	–
Cc1cc(Nc2ncc(F)c(Nc3ccc4c(n3)NC(=O)C(C)(C)O4)n2)cc(Cl)c1OC1CCCC1 [Compound 1027, N2-(3-Chloro-4-cyclopentyloxy-5-methylphenyl)-N4-(2,2-dimethyl-3-oxo-4H-5-pyrid[1,4]oxazin-6-yl)-5-fluoro-2,4-pyrimidinediamine]	–	–	–	< 10	–	> 10
CC1(C)Oc2ccc(Nc3nc(Nc4cccc(-c5ncco5)c4)ncc3F)nc2NC1=O [Compound 1028, N4-(2,2-Dimethyl-3-oxo-4H-5-pyrid[1,4]oxazin-6-yl)-5-fluoro-N2-[3-(oxazol-2-yl)phenyl]-2,4-pyrimidinediamine]	–	–	–	< 10	< 10	> 10
CC1(C)Oc2ccc(Nc3nc(Nc4cccc(-c5cocn5)c4)ncc3F)nc2NC1=O [Compound 1029, N4-(2,2-Dimethyl-3-oxo-4H-5-pyrid[1,4]oxazin-6-yl)-5-fluoro-N2-[3-(oxazol-4-yl)phenyl]-2,4-pyrimidinediamine]	–	–	–	< 10	< 10	> 10
CN1C(=O)C(C)(C)Oc2ccc(N(C)c3nc(Nc4cccc(-c5cocn5)c4)ncc3F)cc21 [Compound 1030]	< 10	–	< 10	–	–	–
COc1c(C)cc(Nc2ncc(F)c(N(C)c3ccc4c(c3)N(C)C(=O)C(C)(C)O4)n2)cc1C [Compound 1031]	< 10	–	> 10	–	–	–
Cc1cc(Nc2ncc(F)c(N(C)c3ccc4c(c3)N(C)C(=O)C(C)(C)O4)n2)cc(Cl)c1OC1CCCC1 [Compound 1032, N2-(3-Chloro-4-cyclopentyloxy-5-methylphenyl)-5-fluoro-N4-methyl-N4-(3-oxo-2,2,4-trimethyl-benz[1,4]oxazin-6-yl)-2,4-pyrimidinediamine]	> 10	–	> 10	–	–	–
